Measured values published in publication PMC4914250, “Cancer therapeutic approach based on conformational stabilization of mutant p53 protein by small peptides” (Oncotarget, 2016).

How the values were obtained:
ES2 ovarian cancer cells = experiment: Crystal violet viability assay, ES2; assay type: cell-based, human; set-up: key to Viability ES2: score 0- no effect-white; score 6- as or more effective than positive control- black; details: 48 h; for Viability ES2: score 0-6 compared to positive control; for mutp53-specific effect on cell number, ES2: ES2 (mp53^S241F) versus ES2 p53KO
Experimental: Cell extracts were added to ELISA plates coated with the indicated antibodies to allow mutp53 to react with the peptides and antibodies. αp53-HRP Ab was used for assessment of p53 levels. Numbers represent ratio of absorbance between the PAb1620 and PAb240 samples. All reads were normalized to the control […] reading of each extract. MCF7 (WTp53) and H1299-mutp53^A135V (tsp53) cells were used as positive controls for the WTp53 conformation (1620/240 ratio equals or exceeds 5:1). […] 96 well plates were coated with anti-p53 antibody, cell extracts containing p53 were reacted with oligonucleotides that contain a p53RE consensus binding site, labeled with biotin, in the presence or absence (NT) of test peptides. Streptavidin-HRP is used to quantify the amount of oligos in the well. TMB assay was performed to determine bound mutp53 levels (450nm). MCF7 and the H1299-mutp53^A135V(TS) cells serve as positive controls for WTp53. C.and D. - Bar graphs illustrating the effect of various selected peptides on mut-p53 dependent expression on cell viability. […] D, ES2 cells expressing endogenous mutp53 (blue bars) and ES2 cells knocked out for p53 by CRISPR construct (light blue bars). Cell lines were treated with selected peptides, Cis-platinum was used as positive control for cell death. 48 hours after treatment, cells were washed with PBS, and the remaining attached cells were stained with Crystal violet and washed 4 times with PBS. Stained cells were dissolved in 10% acetic acid and plates were taken for optical density measurement at […]. TEXT PRINTED IN THE PICTURE: (A) pCAP1: 0.87 | (A) pCAP2: 0.53 | (A) pCAP3: 0.59 | (A) pCAP4: 0.59 | (A) pCAP5: 0.60 | (A) pCAP6: 0.75 | (A) pCAP23: 1.06 | (A) pCAP24: 1.44 | (A) pCAP36: 1.25 | (A) pCAP47: 1.54 | (A) pCAP54: 1.54 | (A) pCAP60: 2.73 | (A) pCAP68: 2.22 | (A) pCAP83: 1.56 | (A) pCAP97: 2.45 DOUBTS OF THE COPYIST ABOUT THIS PICTURE: Panel A: the numbers over the bars are printed very small, rotated and blurred, so 3, 5, 6, 8 and 9 cannot be told apart with certainty. All values are best readings: pCAP1 0.87, pCAP2 0.53, pCAP3 0.59, pCAP4 0.59, pCAP5 0.60, pCAP6 0.75, pCAP23 1.06, pCAP24 1.44, pCAP36 1.25, pCAP47 1.54, pCAP54 1.54, pCAP60 2.73, pCAP68 2.22, pCAP83 1.56, pCAP97 2.45 / Panel A: the picture prints no measure with the numbers over the bars, so they are given as bare numbers / Panel A: numbers are also printed over the controls, which are not substances and are left out of lines. Best readings: NT 0.60, 60° 30'' 0.48, 60° 1' 0.37, 60° 3' 0.13, 60° 10' 0.05, MCF7 3.32, H1299TS 3.25
We also performed a similar analysis on ES2 ovarian cancer cells, which express endogenous mp53^S241F, compared to ES2 cells in which p53 was stably knocked out using CRISPR/Cas9 (ES2 p53KO Figure S1F), to control for specificity for mutp53 (Figure 2D). In ES2 cells, too, some of the peptides caused a significant reduction in cell numbers, more prominent in the mutp53 expressing cells than in their p53KO counterparts. […] Overall, we performed this analysis on several different mutp53-expressing human cancer cell lines, and the results are summarized in Table S3. Based on this comprehensive picture, we reduced the number of most promising candidate lead peptides to 30. These peptides were then synthesized with an 8 arginine C-terminal tail for enhanced delivery across cell membranes (pCAPs 130-160); for clarity, peptides are referred to by their original number, with an R for poly arginine (see Table S3).
(§1) Cells were cultured in 96 wells plates with 2500-4000 cells/well. Serial dilutions of different peptides were added and the plates incubated for additional 48 h at 37°C. Then medium was removed and cell viability was determined by staining the cells with crystal violet (0.05%) in methanol/PBS (1:5, v/v), for 10 min, followed by 3 washes with PBS. 10% acetic acid was added to each well for 10 min. OD was determined at 595 nm.

[1] = test system: mutp53 in SK3 cell extract; experiment: ELISA of mutp53 DNA binding (p53RE oligonucleotide), SK3; assay type: biochemical, human; details: score 0-6 compared to positive control
Experimental: Next, we assessed the ability of our selected peptides to restore sequence-specific DNA binding to mutp53. To that end we employed an ELISA kit (R&D) in which cell extracts containing p53 are reacted with a biotinylated p53RE oligonucleotide and then incubated in wells coated with anti-p53 antibody, which is expected to trap the p53 protein and its associated p53RE DNA. The amount of p53RE retained in each well via p53 binding is quantified by incubation with streptavidin-HRP. […] Again, extracts of MCF7 and H1299-tsp53^A135V cells served as positive controls for WTp53 DNA binding activity. […] Importantly, there was substantial overlap between the peptides that stabilized the WT conformation (Figure 2A) and those that increased specific DNA binding (Figure 2B), further reinforcing the conclusion that those peptides stabilize mutp53 in a functional state. This was not seen with the randomly selected peptides 1-6 (black bars).
For these experiments, a commercial p53/DNA binding kit of “R&D” (Cat-DYC1355-5 Lot-1273366FA) was used, in accordance with manufacturer guide lines. Briefly, 96 well plates we coated with anti-p53 antibody overnight. Cell extracts containing p53 are reacted with an oligonucleotide that contains a p53 consensus binding site (provided in the kit), labeled with Biotin, in the presence or absence (NT) of test peptides. WT p53 is expected to bind this DNA binding site as well as to the antibody coating the test wells of the plate. Excess p53 and oligos were washed away and streptavidin-HRP was used to quantify the amount of oligos in the well, which is proportional to the DNA bound by p53. TMB assay was performed to determine HRP (ES001-1L-K) levels (450nm).

WI38 = experiment: Crystal violet viability assay, WI38; assay type: cell-based; set-up: key: score 0- no effect-white; score 6- as or more effective than positive control- black; details: score 0-6 compared to positive control, 48 h
Experimental: as §1

EVTFRHSVV [pCAP-1, randomly selected peptide used as inert comparison]
Viability ES2 (ES2 ovarian cancer cells): 4

HANLHHT [pCAP-87]
DNA SK3 [1]: 2

HHPWTHHQRWS [pCAP-20]
Viability ES2 (ES2 ovarian cancer cells): 3

HSSHHHPVHSWN [pCAP-83]
Viability WI38 (WI38): 3 | DNA SK3 [1]: 2 | mutp53-specific effect on cell number, ES2 (ES2 ovarian cancer cells): mutp53-specific effect

IRGRIIR [pCAP-54]
Viability WI38 (WI38): 4 | mutp53-specific effect on cell number, ES2 (ES2 ovarian cancer cells): mutp53-specific effect

IRGRIIRRRRRRRRR [pCAP-54R, pCAP-54 with poly arginine tail]
Viability WI38 (WI38): 4 | Viability ES2 (ES2 ovarian cancer cells): 3

IRILMFLIGCGR [pCAP-23]
Viability ES2 (ES2 ovarian cancer cells): 3

IRILMFLIGCGRRRRRRRRR [pCAP-23R, pCAP-23 with poly arginine tail]
Viability WI38 (WI38): 2 | Viability ES2 (ES2 ovarian cancer cells): 3

LHSKTLVL [pCAP-17]
DNA SK3 [1]: 3 | Viability ES2 (ES2 ovarian cancer cells): 3

LRCLLLLIGRVG [pCAP-24]
DNA SK3 [1]: 3 | mutp53-specific effect on cell number, ES2 (ES2 ovarian cancer cells): mutp53-specific effect

LRCLLLLIGRVGRRRRRRRR [pCAP-24R, pCAP-24 with poly arginine tail]
DNA SK3 [1]: 3 | Viability ES2 (ES2 ovarian cancer cells): 3

SFILFIRRGRLG [pCAP-60]
mutp53-specific effect on cell number, ES2 (ES2 ovarian cancer cells): mutp53-specific effect | Viability ES2 (ES2 ovarian cancer cells): 3

SFILFIRRGRLGRRRRRRRRR [pCAP-60R, pCAP-60 with poly arginine tail]
Viability WI38 (WI38): 2 | DNA SK3 [1]: 2 | Viability ES2 (ES2 ovarian cancer cells): 3

WNHHHSTPHPAH [pCAP-97]
Viability WI38 (WI38): 4 | DNA SK3 [1]: 2 | mutp53-specific effect on cell number, ES2 (ES2 ovarian cancer cells): mutp53-specific effect | Viability ES2 (ES2 ovarian cancer cells): 3

WNHHHSTPHPAHRRRRRR [pCAP-97R, pCAP-97 with poly arginine tail]
Viability WI38 (WI38): 4 | DNA SK3 [1]: 3 | Viability ES2 (ES2 ovarian cancer cells): 4

YPTQGHLR [pCAP-36]
Viability WI38 (WI38): 4 | DNA SK3 [1]: 2 | mutp53-specific effect on cell number, ES2 (ES2 ovarian cancer cells): mutp53-specific effect | Viability ES2 (ES2 ovarian cancer cells): 3

YRRLLIGMMWRRRRRRRRR [pCAP-68]
Viability ES2 (ES2 ovarian cancer cells): 5

myr-PRVLPSPHTIHPSQYP [pCAP-229, myristoylated peptide, similarity to HIPK2]
Viability WI38 (WI38): 3 | DNA SK3 [1]: 3

myr-RRIRDPRILLLHFD [pCAP-325]
Viability WI38 (WI38): 6 | DNA SK3 [1]: 3 | Viability ES2 (ES2 ovarian cancer cells): 4

myr-RRKHNKHRPEPDSDER [pCAP-221]
Viability WI38 (WI38): 6 | DNA SK3 [1]: 3 | Viability ES2 (ES2 ovarian cancer cells): 6

myr-RRKILFIRLMHNKH [pCAP-227, myristoylated peptide, similarity to GAS2]
Viability WI38 (WI38): 3 | DNA SK3 [1]: 3 | Viability ES2 (ES2 ovarian cancer cells): 5

myr-RRLIVRILKLPNPPER [pCAP-242]
Viability WI38 (WI38): 4 | DNA SK3 [1]: 4 | Viability ES2 (ES2 ovarian cancer cells): 5
